According to US10550143B2, “C,O-spiro aryl glycoside compounds, preparation therefor and use thereof” (SHANGHAI INSTITUTE OF MATERIA MEDICA, CHINESE ACADEMY OF …, priority 2015, dated 2020):
Values belong to the compound of their own block, whether it stands above or below them.

How the values were obtained:
[1] = target: T1, human sodium-glucose cotransporter 2 (SGLT2) (Homo sapiens, UniProt P31639); test: In vitro SGLT2 inhibition, methyl-α-D-[U-14C]glucopyranoside uptake in NIH3T3-hSGLT2 cells; format: cell-based; settings: for inhibition at 0.01 µM: SGLT2, 10 nM, read-out: % Inhibition rate ± SD 10 nM; for inhibition at 0.1 µM: SGLT2, 100 nM, read-out: % Inhibition rate ± SD 100 nM
T1 construct: expressed in transfected cells; host or cells: NIH3T3 (mouse fibroblast) cells expressing hSGLT2
T1 sequence (P31639 1-672): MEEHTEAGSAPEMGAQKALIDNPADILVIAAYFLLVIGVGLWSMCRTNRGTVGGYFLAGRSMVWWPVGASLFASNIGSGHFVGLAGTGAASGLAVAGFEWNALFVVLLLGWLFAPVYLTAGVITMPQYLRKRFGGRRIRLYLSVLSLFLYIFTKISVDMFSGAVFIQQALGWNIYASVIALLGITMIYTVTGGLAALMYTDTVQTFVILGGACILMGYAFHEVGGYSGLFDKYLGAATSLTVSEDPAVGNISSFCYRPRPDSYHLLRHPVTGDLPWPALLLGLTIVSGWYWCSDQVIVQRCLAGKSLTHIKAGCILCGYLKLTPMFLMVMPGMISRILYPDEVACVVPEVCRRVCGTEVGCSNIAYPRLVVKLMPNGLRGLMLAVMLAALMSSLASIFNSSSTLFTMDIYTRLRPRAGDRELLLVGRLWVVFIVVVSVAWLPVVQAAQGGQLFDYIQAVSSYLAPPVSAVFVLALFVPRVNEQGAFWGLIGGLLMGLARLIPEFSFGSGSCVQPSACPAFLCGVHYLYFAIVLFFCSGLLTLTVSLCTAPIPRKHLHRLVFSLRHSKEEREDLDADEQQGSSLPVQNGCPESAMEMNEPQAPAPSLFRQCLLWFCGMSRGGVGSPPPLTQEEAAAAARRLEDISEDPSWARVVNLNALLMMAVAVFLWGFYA
Description: Inhibition of the compounds of formula I against human sodium-glucose cotransporter 2 (SGLT2) was determined experimentally and the experimental procedures were carried out as reference^1.
Methyl-α-D-[U-^14C] glucopyranoside (Perkin Elmer) Dimethylsulfoxide (Genebase, Prod No: 0231)
(1) Primary screening of hSGLT2 are conducted with two concentrations, 100 nM and 10 nM;
SGLT2 transports D-glucose at 1:1 sodium-glucose ratio, glucose is replaced by the non-metabolic and isotope labeled methyl-aD-[U-^14C] glucopyranoside and methyl-aD-glucopyranoside, and the amount of isotope transferred into the cells was determined.
1) 0.2% gelatin in a 96-well plate was put in a 37° C. incubator for further use;
2) NIH3T3-hSGLT2 cells were injected into 96-well plates, 40000/well, and 100 μL culture medium per well:
3) the fluid was changed in the next day, and sodium butyrate was added into medium at a final concentration of 2 mM;
4) wash the cells with 100 μL of KRH—Na^+ for 3 times and incubate cells with 50 μL for 30 minutes. Cells were changed to 50 μL of compound in KRH—Na^+, uptake buffer (KRH—Na^+ and methyl-α-D-[U-^14C]glucopyranoside and ⅙ mM methyl-α-D-glucopyranoside at 10 μL per well) was added; KRH-acetylcholine solution was used as background control instead of KRH-Na^+
5) washed with 100 μL PBS for 3 times, dried, 50 μL lysate and 150 μL scintillation fluid were added, the membrane was covered and flattened, shaken on a shaker to mix thoroughly, centrifuged at 1500 rpm at 4° C. for 3 min, taken out and read;
6) the results were analyses.
The inhibition rate (% Inhibiton) of each sample at each concentration was calculated by dividing the value of the compound well value minus the background value by the value of the DMSO control well value minus the background value.
IC50 is calculated as follows: […]
The y value is the activity or inhibition percent, the x value is the concentration of the corresponding compound, top (the maximum y value of the curve), bottom (the minimum y value of the curve).

[2] = test system: SD rats; test: Acute single administration, urinary glucose changes in SD rats; format: in vivo, rat; design: Urine glucose concentration / The total amount of glucose excreted: unit not given here; settings: 1 mg/kg oral, after 24 h
Description: (1) Acutely Administering Compound to Observed the Urinary Glucose Changes in SD Rats
Thirty-eight male normal SD rats were selected and randomly divided into 5 groups according to body weight and blood glucose, 6-8 in each group. […] After oral gavage, the rats were placed in rats metabolic cages, and urine was collected after 24 h, and the urine volume was recorded, the urine sugar concentration was determined, and urinary sugar content was calculated according to the following formula. Urine content=urinary sugar concentration×urine volume
Glucose levels in urine are measured by the glucose assay kit.
Data were expressed as mean±standard deviation (x±s), and Student's t test was used for statistical analysis of the data, p<0.05 was considered statistically significant.

[3] = test system: db/db mice; test: Chronic administration, random blood glucose in db/db mice; format: in vivo, mouse; settings: for random blood glucose Pre: before administration; for Hypoglycemic rate % week 1 / Hypoglycemic rate % week 2 / Hypoglycemic rate % week 3 / Hypoglycemic rate % week 4: random blood glucose
Description: Oral gavage administrated, daily dose volume was 10 mL/kg, administered once daily. Administration time was 9: 00-10:00 daily, and the administration period was 5 weeks.
The random blood glucose of mice in the normal control group, model control group, test substance administration group and positive control group were determined on the 7th, 14th, 21st, 28th day (9: 00-10:00) every week after the first administration, and food was removed and after 6 hours of starvation, the fasting blood glucose in each group was measured. Free drinking during the hunger process. The rate of decrease of blood glucose was calculated according to the following formula: Average hypoglycemic rate %=(Blood glucose of model control group−Blood glucose of administration group)/Model control group×100%

inhibition at 0.01 µM [1]: 33.9 ± 14.1%
inhibition at 0.1 µM [1]: 50.4 ± 16.9%
Structure (SMILES): C#Cc1cc2c(cc1Cc1ccc(CC)s1)[C@]1(OC2)O[C@H](C)[C@@H](O)[C@H](O)[C@H]1O [Example A85, (1S,3′R,4′S,5′S,6′R)-5-ethynyl-6′-methyl-6-((5-ethylthienyl)-2-methyl)-3′,4′,5′,6′-tetrahydro-3H-spiro[isobenzofuran-1,2′-pyran]-3′,4′,5′-triol]

inhibition at 0.01 µM [1]: 4.8 ± 3.9%
inhibition at 0.1 µM [1]: 50.8 ± 7.5%
Structure (SMILES): C[C@H]1O[C@]2(OCc3cc(Cl)c(Cc4ccc5occc5c4)cc32)[C@H](O)[C@@H](O)[C@@H]1O [Example A106, (1S,3′R,4′S,5′S,6′R)-6-(benzofuran-5-ylmethyl)-5-chloro-6′-methyl-3′,4′,5′,6′-tetrahydro-3H-spiro[isobenzofuran-1,2′-pyran]-3′,4′,5′-triol]

inhibition at 0.01 µM [1]: 100.4 ± 0.9%
inhibition at 0.1 µM [1]: 96.2 ± 3.4%
Structure (SMILES): C[C@H]1O[C@]2(OCc3cc(Cl)c(Cc4ccc(C5(C#N)CC5)cc4)cc32)[C@H](O)[C@@H](O)[C@@H]1O [Example A108, 1-(4-(((1S,3′R,4′S,5′S,6′R)-5-chloro-3′,4′,5′-trihydroxy-6′-methyl-3′,4′,5′,6′-tetrahydro-3H-spiro[isobenzofuran-1,2′-pyran]-6-yl)methyl)phenyl)cyclopropane-1-formonitrile]

inhibition at 0.01 µM [1]: 86.8 ± 1.6%
inhibition at 0.1 µM [1]: 62.6 ± 7.2%
Structure (SMILES): C[C@H]1O[C@]2(OCc3cc(Cl)c(Cc4ccc(C5(C#N)CC5)s4)cc32)[C@H](O)[C@@H](O)[C@@H]1O [Example A109, 1-(5-(((1S,3′R,4′S,5′S,6′R)-5-chloro-3′,4′,5′-trihydroxy-6′-methyl-3′,4′,5′,6′-tetrahydro-3H-spiro[isobenzofuran-1,2′-pyran]-6-yl)methyl)thiophene-2-yl)cyclopropane-1-formonitrile]

inhibition at 0.01 µM [1]: 93 ± 5.9%
inhibition at 0.1 µM [1]: 71.5 ± 7.2%
Structure (SMILES): C[C@H]1O[C@]2(OCc3cc(Cl)c(Cc4ccc(C(F)(F)F)cc4)cc32)[C@H](O)[C@@H](O)[C@@H]1O [Example A110]

inhibition at 0.01 µM [1]: 46.2 ± 11.1%
inhibition at 0.1 µM [1]: 39.9 ± 10.8%
Structure (SMILES): C[C@H]1O[C@]2(OCc3cc(Cl)c(C(=O)c4ccc(C(F)(F)F)cc4)cc32)[C@H](O)[C@@H](O)[C@@H]1O [Example A111, ((1S,3′R,4′S,5′S,6′R)-5-chloro-3′,4′,5′-trihydroxy-6′-methyl-3′,4′,5′,6′-tetrahydro-3H-spiro[isobenzofuran-1,2′-pyran]-6-yl)(4-(trifluoromethyl)phenyl)ketone]

inhibition at 0.01 µM [1]: 34.9 ± 23%
inhibition at 0.1 µM [1]: 44.3 ± 15.6%
Structure (SMILES): C[C@H]1O[C@]2(OCc3cc(Cl)c(C(=O)c4ccc(C(F)(F)F)c(F)c4)cc32)[C@H](O)[C@@H](O)[C@@H]1O [Example A112, ((1S,3′R,4′S,5′S,6′R)-5-chloro-3′,4′,5′-trihydroxy-6′-methyl-3′,4′,5′,6′-tetrahydro-3H-spiro[isobenzofuran-1,2′-pyran]-6-yl)(3-fluoro-4-(trifluoromethyl)phenyl)ketone]

inhibition at 0.01 µM [1]: 20.9 ± 16.3%
inhibition at 0.1 µM [1]: 22.5 ± 10.7%
Structure (SMILES): CCc1ccc(C(=O)c2cc3c(cc2Cl)CO[C@]32O[C@H](C)[C@@H](O)[C@H](O)[C@H]2O)s1 [Example A113, ((1S,3′R,4′S,5′S,6′R)-5-chloro-3′,4′,5′-trihydroxy-6′-methyl-3′,4′,5′,6′-tetrahydro-3H-spiro[isobenzofuran-1,2′-pyran]-6-yl)(5-ethylthiophene-2-yl)ketone]

inhibition at 0.01 µM [1]: 78.1 ± 5.1%
inhibition at 0.1 µM [1]: 53.8 ± 5.5%
Structure (SMILES): CCOCCc1ccc(Cc2cc3c(cc2Cl)CO[C@]32O[C@H](C)[C@@H](O)[C@H](O)[C@H]2O)s1 [Example A115, (1S,3′R,4′S,5′S,6′R)-5-chloro-6-((5-(2-ethoxyethyl)thiophene-2-yl)methyl)-6′-methyl-3′,4′,5′,6′-tetrahydro-3H-spiro[isobenzofuran-1,2′-pyran]-3′,4′,5′-triol]

inhibition at 0.01 µM [1]: 89.4 ± 1.5%
inhibition at 0.1 µM [1]: 62.3 ± 6%
Structure (SMILES): CCCOCCc1ccc(Cc2cc3c(cc2Cl)CO[C@]32O[C@H](C)[C@@H](O)[C@H](O)[C@H]2O)s1 [Example A116, (1S,3′R,4′S,5′S,6′R)-5-chloro-6-((5-(2-propoxyethyl)thiophene-2-yl)methyl)-6′-methyl-3′,4′,5′,6′-tetrahydro-3H-spiro[isobenzofuran-1,2′-pyran]-3′,4′,5′-triol]

inhibition at 0.01 µM [1]: 30.1 ± 1%
inhibition at 0.1 µM [1]: 22.6 ± 8.3%
Structure (SMILES): CC(=O)c1ccc(Cc2cc3c(cc2Cl)CO[C@]32O[C@H](C)[C@@H](O)[C@H](O)[C@H]2O)s1 [Example A117, 1-(5-(((1S,3′R,4′S,5′S,6′R)-5-chloro-3′,4′,5′-trihydroxy-6′-methyl-3′,4′,5′,6′-tetrahydro-3H-spiro[isobenzofuran-1,2′-pyran]-6-yl)methyl)thiophene-2-yl)ethanone]

inhibition at 0.01 µM [1]: 4 ± 9.2%
inhibition at 0.1 µM [1]: 22.8 ± 8.1%
Structure (SMILES): CCc1ccc(C(O)c2cc3c(cc2Cl)CO[C@]32O[C@H](C)[C@@H](O)[C@H](O)[C@H]2O)s1 (some centres unmarked) [Example A120]

inhibition at 0.01 µM [1]: 59.6 ± 11.3%
inhibition at 0.1 µM [1]: 103 ± 2.8%
Structure (SMILES): CCOc1ccc(Cc2cc([C@@H]3O[C@H](CO)[C@@H](O)[C@H](O)[C@H]3O)ccc2Cl)cc1 [dapagliflozin, reference compound]
The total amount of glucose excreted ([2]; Table 3): 1860.61 ± 575.28
Urine glucose concentration ([2]; Table 3): 251.92 ± 52.98
Urine volume ([2]; Table 3, in mL): 40.75 ± 8.60
The total amount of glucose excreted ([2]; Table 4): 1822.21 ± 112.97
Urine glucose concentration ([2]; Table 4): 382.41 ± 35.64
Urine volume ([2]; Table 4, in mL): 26.67 ± 3.01
random blood glucose week 1 ([3]; 1 mg/kg once daily oral): 14.9 ± 0.9 mmol/L
random blood glucose week 2 ([3]; 1 mg/kg once daily oral): 14.9 ± 1.1 mmol/L
random blood glucose week 3 ([3]; 1 mg/kg once daily oral): 14.9 ± 1.0 mmol/L
random blood glucose week 4 ([3]; 1 mg/kg once daily oral): 14.4 ± 1.1 mmol/L
random blood glucose Pre ([3]; 1 mg/kg once daily oral): 19.3 ± 1.2 mmol/L
random blood glucose week 1 ([3]; 3 mg/kg once daily oral): 13.4 ± 0.8 mmol/L
random blood glucose week 2 ([3]; 3 mg/kg once daily oral): 14.1 ± 0.8 mmol/L
random blood glucose week 3 ([3]; 3 mg/kg once daily oral): 15.2 ± 1.2 mmol/L
random blood glucose week 4 ([3]; 3 mg/kg once daily oral): 11.7 ± 1.0 mmol/L
random blood glucose Pre ([3]; 3 mg/kg once daily oral): 17.5 ± 1.2 mmol/L
Hypoglycemic rate % week 1 ([3]; 1 mg/kg once daily oral): 24.0%
Hypoglycemic rate % week 2 ([3]; 1 mg/kg once daily oral): 23.6%
Hypoglycemic rate % week 3 ([3]; 1 mg/kg once daily oral): 26.4%
Hypoglycemic rate % week 4 ([3]; 1 mg/kg once daily oral): 30.5%
Hypoglycemic rate % week 1 ([3]; 3 mg/kg once daily oral): 32.0%
Hypoglycemic rate % week 2 ([3]; 3 mg/kg once daily oral): 27.7%
Hypoglycemic rate % week 3 ([3]; 3 mg/kg once daily oral): 25.4%
Hypoglycemic rate % week 4 ([3]; 3 mg/kg once daily oral): 43.8%
